What all share (format): in vivo, Male Wistar rats
The subject of test [1] is immunoreactivity of the neuronal acetylcholine in the neurones of the magnocellular nucleus basalis (MNB) and in the corpus striatum. Nature of the test: Immunoreactivity of neuronal acetylcholine in MNB and corpus striatum neurones.
The subject of test [2] is levels of acetylcholine in the cerebral cortex (frontal area), in the hippocampus and in the corpus striatum. The test is described as follows: Levels of acetylcholine in rat brain areas after 1 week of treatment.
For test [3], the target named is T1, acetylcholinesterase (AChE) (Rattus norvegicus, UniProt P37136).
T1 construct: Male Wistar rats were divided into 5 groups; from tissue; host or cells: Male Wistar rats
T1 sequence (P37136 32-614): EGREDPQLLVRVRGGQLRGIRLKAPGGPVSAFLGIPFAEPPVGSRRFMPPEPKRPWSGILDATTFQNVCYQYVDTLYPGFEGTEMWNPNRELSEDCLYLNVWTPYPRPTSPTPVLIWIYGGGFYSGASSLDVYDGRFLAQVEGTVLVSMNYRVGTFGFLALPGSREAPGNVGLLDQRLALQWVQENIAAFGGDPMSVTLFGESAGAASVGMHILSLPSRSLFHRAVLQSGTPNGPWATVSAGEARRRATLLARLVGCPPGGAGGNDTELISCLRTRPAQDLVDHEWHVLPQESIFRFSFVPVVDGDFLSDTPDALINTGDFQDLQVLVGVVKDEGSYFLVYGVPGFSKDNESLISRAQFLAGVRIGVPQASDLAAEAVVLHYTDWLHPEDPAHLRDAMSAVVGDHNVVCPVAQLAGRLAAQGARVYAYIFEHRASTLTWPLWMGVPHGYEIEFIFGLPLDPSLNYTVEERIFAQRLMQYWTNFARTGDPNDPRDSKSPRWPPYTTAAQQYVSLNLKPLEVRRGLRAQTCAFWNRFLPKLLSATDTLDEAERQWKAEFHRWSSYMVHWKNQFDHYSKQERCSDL
Nature of the test: Activity of acetylcholinesterase in treated rats. The note with it: choline alfoscerate alone, 150 mg/kg.

Turning to `CCN(C)C(=O)Oc1cccc([C@H](C)N(C)C)c1` [rivastigmine], in test [1] (rat, in vivo, 2.5 mg/kg), the “immunoreactivity of the acetylcholine” value is given as “increased in a similar fashion”.
Consider `C[N+](C)(C)CCOP(=O)([O-])OC[C@H](O)CO` [choline alfoscerate], for which, in test [2] (150 mg/kg choline alfoscerate, hippocampus and corpus striatum, reason for the choice of dose), the release of acetylcholine result is “significantly increases”. Also, the “increase in the levels of acetylcholine, compared with rivastigmine” value in test [2] (choline alfoscerate alone versus rivastigmine 2.5 mg/kg, frontal cerebral cortex, hippocampus, corpus striatum) is on record as “to the same extent as the dosage of the AchE inhibitor, rivastigmine”. Besides, the “increased the levels of acetylcholine” value in test [2] (choline alfoscerate alone, 150 mg/kg intraperitoneal, 1 week) was “approximately 20%”. The “effect on the activity of the AChE” value in test [3] is on record as “did not show any effect”. Also, the “immunoreactivity of the acetylcholine” value in test [1] (choline alfoscerate alone, 150 mg/kg, MNB neurones and interneurones of the corpus striatum, more marked in the MNB) is “increased in a similar fashion”.

(Values after patent publication EP1203584A1 (priority 2000, dated 2002).)
